Our source for the TGI values is PubChem BioAssay (NCI).

Test systems include HCT-116 colon; OVCAR-5 ovarian; SK-OV-3 ovarian; K-562 leukemia; RPMI-8226 leukemia; HS 578T breast; DU-145 prostate; NCI/ADR-RES ovarian; 786-0 renal; SF-268 CNS; UO-31 renal; CCRF-CEM leukemia; MOLT-4 leukemia; OVCAR-4 ovarian; SF-295 CNS; UACC-257 melanoma; RXF 393 renal; CAKI-1 renal; KM12 colon.
Experiment in all cases: inhibition of tumour cell growth, NCI panel, 48 h

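48-hour exposure; five concentrations; linearly interpolated endpoints. Definition used: TGI = concentration required for complete inhibition of growth.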 A value given as a limit tells only on which side of the number the result lay.

For the compound `CC(C)SC(NC(=O)C1C(C)(C)CCC1(C)C)C(=O)O` (stereo not drawn), the TGI in the test with HCT-116 colon, in the test on OVCAR-5 ovarian, in the test with SK-OV-3 ovarian, in the test on K-562 leukemia, in the test with RPMI-8226 leukemia and with HS 578T breast was above 100 µM in each case. The TGI with DU-145 prostate, with NCI/ADR-RES ovarian, in the test with 786-0 renal, in the test on SF-268 CNS, in the test on UO-31 renal and in the test with CCRF-CEM leukemia was above 100 µM each time.

Consider `O=c1[nH]c(=O)n(C2CC(O)C(CO)O2)cc1OCC1CCCCC1` (stereo not drawn), for which the TGI in the test with MOLT-4 leukemia, in the test with OVCAR-4 ovarian, in the test on SF-295 CNS, in the test with HCT-116 colon, in the test with OVCAR-5 ovarian and with UACC-257 melanoma was above 100 µM each time. Further, the TGI with SK-OV-3 ovarian, with RXF 393 renal, with CAKI-1 renal, in the test on K-562 leukemia, in the test with HS 578T breast and with DU-145 prostate was above 100 µM throughout. Further, the TGI in the test on NCI/ADR-RES ovarian, with 786-0 renal, with SF-268 CNS, in the test with UO-31 renal, in the test on CCRF-CEM leukemia and in the test with KM12 colon was above 100 µM in each case.

Consider `CSc1nc(SC)c2ncn(C3CC(Oc4ccc(C)cc4)C(COc4ccc(C)cc4)O3)c2n1` (stereo not drawn), for which the TGI in the test on OVCAR-4 ovarian, with SF-295 CNS, in the test with HCT-116 colon, in the test on OVCAR-5 ovarian, in the test with UACC-257 melanoma and in the test on SK-OV-3 ovarian was above 100 µM throughout. Also, the TGI in the test on CAKI-1 renal, with RPMI-8226 leukemia, with HS 578T breast, in the test on DU-145 prostate, in the test on NCI/ADR-RES ovarian and in the test with 786-0 renal was above 100 µM throughout. Besides, the TGI in the test on SF-268 CNS was above 100 µM; in the test with UO-31 renal it was 7.61 µM; with CCRF-CEM leukemia, above 100 µM; in the test with KM12 colon, above 100 µM.

As for `CC(C)(C)c1ccc(/C=N/NC(=O)CSCC(=O)N/N=C/c2ccc(C(C)(C)C)cc2)cc1`, the TGI in the test with MOLT-4 leukemia was 5.02 µM; with OVCAR-4 ovarian, above 100 µM; in the test with OVCAR-5 ovarian it was 12.5 µM; with UACC-257 melanoma, 15.2 µM; in the test with SK-OV-3 ovarian, 19.4 µM; in the test on RXF 393 renal, 4.29 µM. The TGI was 6.7 µM with K-562 leukemia; above 100 µM in the test on RPMI-8226 leukemia; 7.61 µM with HS 578T breast; above 100 µM with DU-145 prostate; 15.5 µM with NCI/ADR-RES ovarian; 4.4 µM in the test on 786-0 renal. For the same compound, the values for the TGI with SF-268 CNS, in the test with UO-31 renal and in the test on KM12 colon were 10.9 µM, 15.7 µM and 6.18 µM, respectively.

As to `COC(=O)C1C2CC3C1C3C2C(=O)OC` (stereo not drawn), the TGI with MOLT-4 leukemia, in the test with OVCAR-4 ovarian, in the test on SF-295 CNS, in the test on HCT-116 colon, in the test on OVCAR-5 ovarian and in the test on UACC-257 melanoma was above 100 µM each time. In addition, the TGI in the test with SK-OV-3 ovarian, in the test on RXF 393 renal, in the test on CAKI-1 renal, with K-562 leukemia, with HS 578T breast and with DU-145 prostate was above 100 µM throughout. Further, the TGI in the test with NCI/ADR-RES ovarian, in the test on 786-0 renal, in the test with SF-268 CNS, in the test with UO-31 renal, with CCRF-CEM leukemia and in the test with KM12 colon was above 100 µM throughout.

`C#CCCCOc1ncccn1`: the TGI in the test with MOLT-4 leukemia, with OVCAR-4 ovarian, in the test on SF-295 CNS, with HCT-116 colon, in the test on OVCAR-5 ovarian and in the test on UACC-257 melanoma was above 100 µM throughout. The TGI with SK-OV-3 ovarian, in the test with RXF 393 renal, with CAKI-1 renal, in the test with K-562 leukemia, with RPMI-8226 leukemia and in the test on HS 578T breast was above 100 µM in each case. For the same compound, the TGI in the test on DU-145 prostate, in the test on NCI/ADR-RES ovarian, with 786-0 renal, in the test with SF-268 CNS, with UO-31 renal and with KM12 colon was above 100 µM each time.

Take `Cn1/c(=N\N=C(\CNCCO)[C@@H](O)[C@@H]2OC(c3ccccc3)OC[C@H]2O)sc2ccccc21` (stereo partly drawn): the TGI in the test on MOLT-4 leukemia turned out to be 33.6 µM; with OVCAR-4 ovarian it was 52.8 µM; in the test with SF-295 CNS, 33.9 µM; with HCT-116 colon, 29.5 µM; in the test with OVCAR-5 ovarian it was 40.3 µM; in the test on UACC-257 melanoma, 39 µM. The TGI in the test with SK-OV-3 ovarian was found to be 37.7 µM; in the test with RXF 393 renal, 30.9 µM; in the test on CAKI-1 renal, 38.6 µM; in the test with K-562 leukemia it was 33.3 µM; in the test on HS 578T breast, 31.1 µM; in the test with DU-145 prostate it was 35.1 µM. The TGI was above 100 µM in the test with NCI/ADR-RES ovarian; 34.3 µM in the test with 786-0 renal; 30.5 µM in the test on SF-268 CNS; 30.1 µM with UO-31 renal; 47.4 µM with CCRF-CEM leukemia; 33.5 µM in the test with KM12 colon.

Take `COc1cc(N(Cc2ccc3nc(OC)c(OC)nc3c2)Cc2ccc3nc(OC)c(OC)nc3c2)cc(OC)c1OC`: the TGI in the test with MOLT-4 leukemia, in the test with OVCAR-4 ovarian, in the test with SF-295 CNS, in the test on HCT-116 colon, in the test on OVCAR-5 ovarian and in the test on UACC-257 melanoma was above 50 µM throughout. The TGI in the test on SK-OV-3 ovarian is above 50 µM; in the test on RXF 393 renal, 41.6 µM; in the test on CAKI-1 renal it was above 50 µM; in the test with RPMI-8226 leukemia it was above 50 µM; with HS 578T breast, 27.2 µM; in the test on DU-145 prostate it was above 50 µM. The TGI with NCI/ADR-RES ovarian, in the test with 786-0 renal, with SF-268 CNS, in the test with UO-31 renal and with KM12 colon was above 50 µM each time.

With `COC(=O)/C=C(\S/C(=N\n1cc(C(=O)OC)c(C(=O)OC)c1-c1ccc(C)cc1)c1ccc(C)cc1)C(=O)OC`, the TGI is above 100 µM in the test with MOLT-4 leukemia; 3.37 µM in the test with OVCAR-4 ovarian; above 100 µM in the test with SF-295 CNS; 4.2 µM in the test with HCT-116 colon; 14.5 µM in the test on OVCAR-5 ovarian; 9.84 µM in the test on UACC-257 melanoma. The TGI is above 57.3 µM in the test with SK-OV-3 ovarian; 13.9 µM in the test with RXF 393 renal; 20.1 µM in the test on RPMI-8226 leukemia; 62.8 µM in the test with HS 578T breast; 31.4 µM in the test with DU-145 prostate; 17.2 µM with NCI/ADR-RES ovarian. Besides, the TGI amounted to 9.69 µM in the test on 786-0 renal, 40.4 µM in the test with SF-268 CNS, 8.48 µM with UO-31 renal and 41.9 µM with KM12 colon.
